pIC50: −log10 of the molar value.
Tests used:
BTK enzyme = biological target: T1, BTK enzyme (Homo sapiens, UniProt Q06187); experiment: In vitro BTK kinase assay: BTK-POLYGAT-LS assay; type: biochemical; conditions: ATP 10 μM, read-out: IC50 (10uMATP)
T1 construct: purchased Upstate 14-552
Method in brief: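 Human BTK activity was measured with final 10 μM ATP and 100 nM polyGAT substrate in pH 7.5 Tris buffer with 10 mM MgCl2, DTT, Triton X-100 and casein.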

[1] = biological target: BTK (phospho-BTK) in human whole blood (Homo sapiens, UniProt Q06187); experiment: In vitro PD assay in human whole blood (pBTK assay)
BTK (phospho-BTK) in human whole blood, sequence (Q06187 whole entry): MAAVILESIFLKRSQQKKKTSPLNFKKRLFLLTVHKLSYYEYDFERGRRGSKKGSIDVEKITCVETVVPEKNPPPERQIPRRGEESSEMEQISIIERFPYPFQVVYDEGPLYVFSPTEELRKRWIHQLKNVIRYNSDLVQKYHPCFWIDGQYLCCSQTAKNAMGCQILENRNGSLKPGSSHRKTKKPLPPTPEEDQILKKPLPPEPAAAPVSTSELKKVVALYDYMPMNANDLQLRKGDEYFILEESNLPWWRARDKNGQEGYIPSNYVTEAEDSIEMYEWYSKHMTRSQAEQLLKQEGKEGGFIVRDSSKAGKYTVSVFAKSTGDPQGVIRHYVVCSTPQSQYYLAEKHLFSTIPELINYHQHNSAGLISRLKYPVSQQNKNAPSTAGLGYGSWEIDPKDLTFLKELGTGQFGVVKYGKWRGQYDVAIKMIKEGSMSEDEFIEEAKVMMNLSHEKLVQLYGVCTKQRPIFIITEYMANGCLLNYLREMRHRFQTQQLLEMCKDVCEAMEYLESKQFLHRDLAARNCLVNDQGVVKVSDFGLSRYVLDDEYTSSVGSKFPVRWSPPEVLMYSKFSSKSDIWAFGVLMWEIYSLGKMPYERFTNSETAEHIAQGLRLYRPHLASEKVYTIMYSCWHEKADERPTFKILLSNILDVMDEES

T1 sequence (Q06187 whole entry): as above

| Structure (SMILES) | pIC50 (BTK enzyme) | pIC50 [1] |
| --- | --- | --- |
| Cc1cc(-c2ccnc(Nc3cnn(C[C@H](N)CO)c3)n2)ccc1CNC(=O)c1cnc(C(C)(C)C)s1 [Example I-131, (S)—N-(4-(2-((1-(2-amino-3-hydroxypropyl)-1H-pyrazol-4-yl)amino)pyrimidin-4-yl)-2-methylbenzyl)-2-(tert-butyl)thiazole-5-carboxamide] | > 8.00 | 5.82 to 6.30 |
| Cc1cc(-c2ccnc(Nc3cnn(C[C@@H](N)C(=O)O)c3)n2)ccc1CNC(=O)c1cnc(C(C)(C)C)s1 [Example I-132, (R)-2-amino-3-(4-((4-(4-((2-(tert-butyl)thiazole-5-carboxamido)methyl)-3-methylphenyl)pyrimidin-2-yl)amino)-1H-pyrazol-1-yl)propanoic acid] | > 8.00 | 5.00 to 5.82 |
| Cc1cc(-c2ccnc(N)n2)ccc1CNC(=O)c1cnc(C(C)(C)C)s1 [Example I-135, N-(4-(2-aminopyrimidin-4-yl)-2-methylbenzyl)-2-(tert-butyl)thiazole-5-carboxamide] | > 8.00 | 5.00 to 5.82 |
| Cc1cc(-c2ccnc(N)n2)ccc1CNC(=O)c1cc2c(s1)CCCC2 [Example I-142, N-(4-(2-aminopyrimidin-4-yl)-2-methylbenzyl)-4,5,6,7-tetrahydrobenzo[b]thiophene-2-carboxamide] | > 8.00 | 5.00 to 5.82 |
| Cn1cc(Nc2nccc(-c3ccc4c(c3)CCCCC4NC(=O)N3CC(OC(C)(C)C)C3)n2)cn1 (centres unmarked) [Example I-163, 3-(tert-butoxy)-N-(2-(2-((1-methyl-H-pyrazol-4-yl)amino)pyrimidin-4-yl)-6,7,8,9-tetrahydro-5H-benzo[7]annulen-5-yl)azetidine-1-carboxamide] | > 8.00 | > 6.30 |
| Cn1cc(Nc2nccc(-c3ccc4c(c3)CCCC[C@H]4NC(=O)N3CC(OC(C)(C)C)C3)n2)cn1 [Example I-164, (R)-3-(tert-butoxy)-N-(2-(2-((1-methyl-1H-pyrazol-4-yl)amino)pyrimidin-4-yl)-6,7,8,9-tetrahydro-5H-benzo[7]annulen-5-yl)azetidine-1-carboxamide] | > 8.00 | > 6.30 |
| CCn1cc(Nc2nccc(-c3ccc4c(c3)CCCCC4NC(=O)N3CC(OC(C)C)C3)n2)cn1 (centres unmarked) [Example I-166, N-(2-(2-((1-ethyl-1H-pyrazol-4-yl)amino)pyrimidin-4-yl)-6,7,8,9-tetrahydro-5H-benzo[7]annulen-5-yl)-3-isopropoxyazetidine-1-carboxamide] | > 8.00 | > 6.30 |
| CC(C)OC1CN(C(=O)NC2CCCCc3cc(-c4ccnc(Nc5cnn(C(C)C)c5)n4)ccc32)C1 (centres unmarked) [Example I-167, 3-isopropoxy-N-(2-(2-((1-isopropyl-1H-pyrazol-4-yl)amino)pyrimidin-4-yl)-6,7,8,9-tetrahydro-5H-benzo[7]annulen-5-yl)azetidine-1-carboxamide] | > 8.00 | > 6.30 |
| CC(C)OC1CN(C(=O)NC2CCCCc3cc(-c4ccnc(Nc5cnn(CCO)c5)n4)ccc32)C1 (centres unmarked) [Example I-168, N-(2-(2-((1-(2-hydroxyethyl)-1H-pyrazol-4-yl)amino)pyrimidin-4-yl)-6,7,8,9-tetrahydro-5H-benzo[7]annulen-5-yl)-3-isopropoxyazetidine-1-carboxamide] | > 8.00 | > 6.30 |
| CC(C)OC1CN(C(=O)N[C@@H]2CCCCc3cc(-c4ccnc(Nc5cnn(CCO)c5)n4)ccc32)C1 [Example I-169, (R)—N-(2-(2-((1-(2-hydroxyethyl)-1H-pyrazol-4-yl)amino)pyrimidin-4-yl)-6,7,8,9-tetrahydro-5H-benzo[7]annulen-5-yl)-3-isopropoxyazetidine-1-carboxamide] | > 8.00 | > 6.30 |
| COCCn1cc(Nc2nccc(-c3ccc4c(c3)CCCCC4NC(=O)N3CC(OC(C)C)C3)n2)cn1 (centres unmarked) [Example I-171, 3-isopropoxy-N-(2-(2-((1-(2-methoxyethyl)-1H-pyrazol-4-yl)amino)pyrimidin-4-yl)-6,7,8,9-tetrahydro-5H-benzo[7]annulen-5-yl)azetidine-1-carboxamide] | > 8.00 | > 6.30 |
| CC(C)OC1CN(C(=O)NC2CCCCc3cc(-c4ccnc(Nc5cnn(C6CCOCC6)c5)n4)ccc32)C1 (centres unmarked) [Example I-172, 3-isopropoxy-N-(2-(2-((1-(tetrahydro-2H-pyran-4-yl)-1H-pyrazol-4-yl)amino)pyrimidin-4-yl)-6,7,8,9-tetrahydro-5H-benzo[7]annulen-5-yl)azetidine-1-carboxamide] | > 8.00 | > 6.30 |
| CCn1cc(Nc2nccc(-c3ccc4c(c3)CCCCC4NC(=O)N3CC(OC(C)(C)C)C3)n2)cn1 (centres unmarked) [Example I-173, 3-(tert-butoxy)-N-(2-(2-((1-ethyl-1H-pyrazol-4-yl)amino)pyrimidin-4-yl)-6,7,8,9-tetrahydro-5H-benzo[7]annulen-5-yl)azetidine-1-carboxamide] | > 8.00 | > 6.30 |
| CC(C)n1cc(Nc2nccc(-c3ccc4c(c3)CCCCC4NC(=O)N3CC(OC(C)(C)C)C3)n2)cn1 (centres unmarked) [Example I-174, 3-(tert-butoxy)-N-(2-(2-((1-isopropyl-1H-pyrazol-4-yl)amino)pyrimidin-4-yl)-6,7,8,9-tetrahydro-5H-benzo[7]annulen-5-yl)azetidine-1-carboxamide] | > 8.00 | > 6.30 |
| COCCn1cc(Nc2nccc(-c3ccc4c(c3)CCCCC4NC(=O)N3CC(OC(C)(C)C)C3)n2)cn1 (centres unmarked) [Example I-175, 3-(tert-butoxy)-N-(2-(2-((1-(2-methoxyethyl)-1H-pyrazol-4-yl)amino)pyrimidin-4-yl)-6,7,8,9-tetrahydro-5H-benzo[7]annulen-5-yl)azetidine-1-carboxamide] | > 8.00 | > 6.30 |
| COCCn1cc(Nc2nccc(-c3ccc4c(c3)CCCC[C@H]4NC(=O)N3CC(OC(C)(C)C)C3)n2)cn1 [Example I-176, (R)-3-(tert-butoxy)-N-(2-(2-((1-(2-methoxyethyl)-1H-pyrazol-4-yl)amino)pyrimidin-4-yl)-6,7,8,9-tetrahydro-5H-benzo[7]annulen-5-yl)azetidine-1-carboxamide] | > 8.00 | > 6.30 |
| CC(C)(C)OC1CN(C(=O)NC2CCCCc3cc(-c4ccnc(Nc5cnn(CCO)c5)n4)ccc32)C1 (centres unmarked) [Example I-178, 3-(tert-butoxy)-N-(2-(2-((1-(2-hydroxyethyl)-1H-pyrazol-4-yl)amino)pyrimidin-4-yl)-6,7,8,9-tetrahydro-5H-benzo[7]annulen-5-yl)azetidine-1-carboxamide] | > 8.00 | > 6.30 |
| CC(C)(C)OC1CN(C(=O)NC2CCCCc3cc(-c4ccnc(Nc5cnn(C6CCOCC6)c5)n4)ccc32)C1 (centres unmarked) [Example I-179, 3-(tert-butoxy)-N-(2-(2-((1-(tetrahydro-2H-pyran-4-yl)-1H-pyrazol-4-yl)amino)pyrimidin-4-yl)-6,7,8,9-tetrahydro-5H-benzo[7]annulen-5-yl)azetidine-1-carboxamide] | > 8.00 | > 6.30 |
| CN1CCC(n2cc(Nc3nccc(-c4ccc5c(c4)CCCCC5NC(=O)N4CC(OC(C)(C)C)C4)n3)cn2)CC1 (centres unmarked) [Example I-180, 3-(tert-butoxy)-N-(2-(2-((1-(1-methylpiperidin-4-yl)-1H-pyrazol-4-yl)amino)pyrimidin-4-yl)-6,7,8,9-tetrahydro-5H-benzo[7]annulen-5-yl)azetidine-1-carboxamide] | > 8.00 | > 6.30 |
| CC(C)C1CCN(C(=O)NC2CCCCc3cc(-c4ccnc(Nc5cnn(CCO)c5)n4)ccc32)C1 (centres unmarked) [Example I-181, N-(2-(2-((1-(2-hydroxyethyl)-1H-pyrazol-4-yl)amino)pyrimidin-4-yl)-6,7,8,9-tetrahydro-5H-benzo[7]annulen-5-yl)-3-isopropylpyrrolidine-1-carboxamide] | > 8.00 | > 6.30 |
| CC(C)(C)OC1CN(C(=O)NC2CCCCc3cc(-c4ccnc(Nc5cnn6c5CCC6)n4)ccc32)C1 (centres unmarked) [Example I-182, 3-(tert-butoxy)-N-(2-(2-((5,6-dihydro-4H-pyrrolo [1,2-b]pyrazol-3-yl)amino)pyrimidin-4-yl)-6,7,8,9-tetrahydro-5H-benzo[7]annulen-5-yl)azetidine-1-carboxamide] | > 8.00 | > 6.30 |
| COCCn1cc(Nc2nccc(-c3ccc4c(c3)CCCCC4NC(=O)N3CCC(C(C)C)C3)n2)cn1 (centres unmarked) [Example I-183, 3-Isopropyl-N-(2-(2-((1-(2-methoxyethyl)-1H-pyrazol-4-yl)amino)pyrimidin-4-yl)-6,7,8,9-tetrahydro-5H-benzo[7]annulen-5-yl)pyrrolidine-1-carboxamide] | > 8.00 | > 6.30 |
| CC(C)(C)C1CCN(C(=O)NC2CCCCc3cc(-c4ccnc(Nc5cnn(CCO)c5)n4)ccc32)C1 (centres unmarked) [Example I-185, 3-(tert-butyl)-N-(2-(2-((1-(2-hydroxyethyl)-1H-pyrazol-4-yl)amino)pyrimidin-4-yl)-6,7,8,9-tetrahydro-5H-benzo[7]annulen-5-yl)pyrrolidine-1-carboxamide] | > 8.00 | > 6.30 |
| COCCn1cc(Nc2nccc(-c3ccc4c(c3)CCCCC4NC(=O)N3CCC(C(C)(C)C)C3)n2)cn1 (centres unmarked) [Example I-186, 3-(tert-butyl)-N-(2-(2-((1-(2-methoxyethyl)-1H-pyrazol-4-yl)amino)pyrimidin-4-yl)-6,7,8,9-tetrahydro-5H-benzo[7]annulen-5-yl)pyrrolidine-1-carboxamide] | > 8.00 | > 6.30 |
| CC(C)OC1CN(C(=O)NC2CCN(CC(F)(F)F)Cc3cc(-c4ccnc(Nc5cnn(C)c5)n4)ccc32)C1 (centres unmarked) [Example I-187, 3-isopropoxy-N-(8-(2-((1-methyl-1H-pyrazol-4-yl)amino)pyrimidin-4-yl)-2-(2,2,2-trifluoroethyl)-2,3,4,5-tetrahydro-1H-benzo[c]azepin-5-yl)azetidine-1-carboxamide] | > 8.00 | > 6.30 |

Source: US10759783B2, “Biaryl inhibitors of Bruton'S tyrosine kinase” (BIOGEN MA INC., priority 2013, dated 2020)
